Experiments:
[1] = target: T1, pseudo-kinase domain (JH2, amino-acids 536-812) of human V617F mutant JAK2 (Homo sapiens, UniProt O60674, F794H/V617F/W659A/W777A); assay: JAK2 LanthaScreen JH2-V617F Binding Assay; conditions: 50 nM Fluorescent JAK2-JH2 Tracer, 1 hour at 25° C.; read-out: JH2 BIND V617F (Ex. C)
T1 construct: JH2, amino-acids 536-812 with 3 surface mutations W659A, W777A, F794H; His (C); purchased BPS Bioscience 79498; host or cells: baculovirus expression system
Protocol: Example C. JAK2 LanthaScreen JH2-V617F Binding Assay
(§1) JAK2 JH2-V617F binding assay utilizes pseudo-kinase domain (JH2, amino-acids 536-812 with 3 surface mutations W659A, W777A, F794H) of human V617F mutant JAK2 expressed as C-terminal His-Avi-tagged, biotinylated protein in a baculovirus expression system (BPS Bioscience, Catalog #79498). The assay was conducted in black 384-well polystyrene plates in a final reaction volume of 20 μL. JAK2 JH2-V617F (0.26 nM) was incubated with compounds (100 nL serially diluted in DMSO) in the presence of 50 nM Fluorescent JAK2-JH2 Tracer (MedChem Express Catalog #HY-102055) and 0.25 nM Streptavidin-Tb cryptate (Cisbio Part #610SATLB) in assay buffer (50 mM Tris, pH=7.5, 10 mM MgCl2, 0.01% Brij-35, 0.1% BSA, 1 mM EGTA, 5% Glycerol and 5 mM DTT). Non-specific binding was accessed in the presence of 2 mM ATP. After incubation for 1 hour at 25° C., LanthaScreen signals were read on a PHERAstar FS plate reader (BMG LABTECH). Data was analyzed with IDBS Xlfit and GraphPad Prism 5.0 software using a four parameter dose response curve to determine IC50 for each compound.

[2] = target: T2, catalytic domain (JH1, amino acids 826-1132) of human JAK2 (Homo sapiens, UniProt O60674); assay: JAK2 LanthaScreen JH1 Binding Assay; conditions: 50 nM fluorescent JAK2-JH1 tracer, 2 hours at 25° C.; read-out: JH1 BIND (EX. A)
T2 construct: catalytic domain (JH1, amino acids 826-1132) of human JAK2; FLAG (N); purchased Carna Biosciences 08-445-20N; host or cells: baculovirus expression system
Protocol: Example A. JAK2 LanthaScreen JH1 Binding Assay
JAK2 JH1 binding assay utilizes catalytic domain (JH1, amino acids 826-1132) of human JAK2 expressed as N-terminal FLAG-tagged, biotinylated protein in a baculovirus expression system (Carna Biosciences, Product #08-445-20N). The assay was conducted in black 384-well polystyrene plates in a final reaction volume of 20 μL. JAK2 JH1 (1.5 nM) was incubated with compounds (100 nL serially diluted in DMSO) in the presence of 50 nM fluorescent JAK2-JH1 tracer and 0.5 nM Streptavidin-Tb cryptate (Cisbio Part #610SATLB) in assay buffer (50 mM Tris, pH=7.5, 10 mM MgCl2, 0.01% Brij-35, 0.1% BSA, 1 mM EGTA, 5% Glycerol and 5 mM DTT). Non-specific binding was accessed in the presence of 2 mM ATP. After incubation for 2 hours at 25° C., LanthaScreen signals were read on a PHERAstar FS plate reader (BMG LABTECH). Data was analyzed with IDBS Xlfit and GraphPad Prism 5.0 software using a four parameter dose response curve to determine IC50 for each compound.

[3] = target: T3, pseudo-kinase domain (JH2, amino-acids 536-812) of human Wild Type JAK2 (Homo sapiens, UniProt O60674, F794H/W659A/W777A); assay: JAK2 LanthaScreen JH2-WT Binding Assay; conditions: 50 nM Fluorescent JAK2-JH2 Tracer, 1 hour at 25° C.; read-out: JH2 BIND WT (EX. B)
T3 construct: JH2, amino-acids 536-812 with 3 surface mutations W659A, W777A, F794H; His (C); purchased BPS Bioscience 79463; host or cells: baculovirus expression system
Protocol: Example B. JAK2 LanthaScreen JH2-WT Binding Assay
as §1, with “JH2-WT” for “JH2-V617F”, “Wild Type” for “V617F mutant”, “#79463).” for “#79498).”, “JH2-WT (0.145” for “JH2-V617F (0.26”

[4] = target: T4, catalytic domain (JH1, amino acids 808-1132) of human JAK2 (Homo sapiens, UniProt O60674); assay: JAK2 HTRF Enzyme Activity Assay; format: biochemical; conditions: ATP (30 μM or 1 mM; not stated which for the table), 60 minutes at 25° C.; read-out: JAK2 HTRF (Ex. D)
T4 construct: catalytic domain (JH1, amino acids 808-1132) of human JAK2; His (N); purchased BPS Bioscience 40450; host or cells: baculovirus expression system
Protocol: Example D. JAK2 HTRF Enzyme Activity Assay
JAK2 enzyme activity assays utilize catalytic domain (JH1, amino acids 808-1132) of human JAK2 expressed as N-terminal His-tagged protein in a baculovirus expression system (BPS Bioscience, Catalog #40450). The assays was conducted in black 384-well polystyrene plates in a final reaction volume of 20 μL. JAK2 (0.015 nM) was incubated with compounds (100 nL serially diluted in DMSO) in the presence of ATP (30 μM or 1 mM) and 500 nM Biotin-labeled EQEDEPEGDYFEWLE (SEQ ID NO.: 1) peptide (BioSource International, custom synthesis) in assay buffer (50 mM Tris, pH=7.5, 10 mM MgCl2, 0.01% Brij-35, 0.1% BSA, 1 mM EGTA, 5% Glycerol and 5 mM DTT) for 60 minutes at 25° C. The reactions were stopped by the addition of 10 μL of detection buffer (50 mM Tris, pH 7.8, 0.5 mg/mL BSA, 150 mM NaCl), supplemented with EDTA, LANCE Eu-W1024 anti-phosphotyrosine (PY20), (PerkinElmer, Catalog #AD0067) and Streptavidin SureLight APC (PerkinElmer Catalog #CR130-100), for a final concentration of 15 mM, 1.5 nM and 75 nM, respectively. HTRF signals were read after 30 minutes incubation at room temperature on a PHERAstar FS plate reader (BMG LABTECH). Data was analyzed with TDBS Xlfit and GraphPad Prism 5.0 software using a four parameter dose response curve to determine IC50 for each compound.

T2 sequence (O60674 826-1132): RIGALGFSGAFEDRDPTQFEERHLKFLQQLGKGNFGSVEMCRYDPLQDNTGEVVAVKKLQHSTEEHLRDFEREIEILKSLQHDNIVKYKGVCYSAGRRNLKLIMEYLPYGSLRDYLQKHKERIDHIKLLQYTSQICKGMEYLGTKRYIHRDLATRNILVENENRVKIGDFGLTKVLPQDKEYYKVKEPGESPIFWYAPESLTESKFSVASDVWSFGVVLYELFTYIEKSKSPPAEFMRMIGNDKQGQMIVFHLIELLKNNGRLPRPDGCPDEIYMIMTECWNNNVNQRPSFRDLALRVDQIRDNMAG
T1 sequence (O60674 536-812 V617F/W659A/W777A/F794H): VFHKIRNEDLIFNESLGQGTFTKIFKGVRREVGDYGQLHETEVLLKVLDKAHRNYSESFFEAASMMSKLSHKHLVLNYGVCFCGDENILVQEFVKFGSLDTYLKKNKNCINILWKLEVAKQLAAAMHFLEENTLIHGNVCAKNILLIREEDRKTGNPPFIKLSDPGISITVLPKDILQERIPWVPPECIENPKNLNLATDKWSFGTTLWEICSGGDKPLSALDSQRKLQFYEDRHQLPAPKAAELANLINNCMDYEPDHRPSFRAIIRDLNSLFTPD
T3 sequence (O60674 536-812 W659A/W777A/F794H): as the sequence (O60674 536-812 V617F/W659A/W777A/F794H) above, with F82V counted along it
T4 sequence (O60674 808-1132): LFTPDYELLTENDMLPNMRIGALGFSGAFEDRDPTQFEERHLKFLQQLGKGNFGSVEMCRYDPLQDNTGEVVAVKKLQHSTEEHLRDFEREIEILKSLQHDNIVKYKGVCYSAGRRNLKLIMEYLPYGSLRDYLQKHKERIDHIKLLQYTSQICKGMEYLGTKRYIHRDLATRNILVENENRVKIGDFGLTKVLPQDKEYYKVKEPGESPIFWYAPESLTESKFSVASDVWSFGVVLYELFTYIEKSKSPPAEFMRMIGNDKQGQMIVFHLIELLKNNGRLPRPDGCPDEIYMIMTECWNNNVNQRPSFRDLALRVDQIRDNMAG

| SMILES | IC50 [1] [nM] | IC50 [2] [nM] | IC50 [3] [nM] | IC50 [4] [nM] |
| --- | --- | --- | --- | --- |
| [2H]C([2H])([2H])n1c(=O)n([C@H]2C[C@H](NC(=O)OC3CC3)C2)c2cc(Nc3cc(C(C)(C)O)c4cccc(C(F)(F)F)c4n3)ncc21 [Example 16, Cyclopropyl ((trans)-3-(6-((4-(2-hydroxypropan-2-yl)-8-(trifluoromethyl)quinolin-2-yl)amino)-3-(methyl-d3)-2-oxo-2,3-dihydro-1H-imidazo[4,5-c]pyridin-1-yl)cyclobutyl)carbamate] | ≤ 10 | 100 to 500 | ≤ 10 | 100 to 500 |
| [2H]C([2H])([2H])n1c(=O)n([C@@H]2CC[C@@H](NC(=O)OC)C2)c2cc(Nc3cc(C(C)(C)OC)c4cccc(C(F)(F)F)c4n3)ncc21 [Example 17, Methyl ((1R,3R)-3-(6-((4-(2-methoxypropan-2-yl)-8-(trifluoromethyl)quinolin-2-yl)amino)-3-(methyl-d3)-2-oxo-2,3-dihydro-1H-imidazo[4,5-c]pyridin-1-yl)cyclopentyl)carbamate] | ≤ 10 | > 1000 | ≤ 10 | > 1000 |
| [2H]C([2H])([2H])n1c(=O)n([C@@H]2CC[C@@H](NC(=O)OCc3ccccc3)C2)c2cc(Nc3ccc4cccc(C(F)(F)F)c4n3)ncc21 [Example 8, Benzyl ((1R,3R)-3-(3-(methyl-d3)-2-oxo-6-((8-(trifluoromethyl)quinolin-2-yl)amino)-2,3-dihydro-1H-imidazo[4,5-c]pyridin-1-yl)cyclopentyl)carbamate] | 10 to 100 | > 1000 | 10 to 100 | > 1000 |
| [2H]C([2H])([2H])n1c(=O)n([C@@H]2CC[C@@H](NC(=O)OC)C2)c2cc(Nc3cnc4cccc(C#N)c4n3)ncc21 [Example 37, Methyl ((1R,3R)-3-(6-((8-cyanoquinoxalin-2-yl)amino)-3-(methyl-d3)-2-oxo-2,3-dihydro-1H-imidazo[4,5-c]pyridin-1-yl)cyclopentyl)carbamate] | 10 to 100 | 100 to 500 | ≤ 10 | 100 to 500 |
| [2H]C([2H])([2H])n1c(=O)n([C@@H]2CC[C@@H](NC(=O)OC)C2)c2cc(Nc3cc(C(C)(C)O)c4cc(Cl)cc(C(F)(F)F)c4n3)ncc21 [Example 20, Methyl ((1R,3R)-3-(6-((6-chloro-4-(2-hydroxypropan-2-yl)-8-(trifluoromethyl)quinolin-2-yl)amino)-3-(methyl-d3)-2-oxo-2,3-dihydro-1H-imidazo[4,5-c]pyridin-1-yl)cyclopentyl)carbamate] | ≤ 10 | > 1000 | ≤ 10 | > 1000 |
| [2H]C([2H])([2H])n1c(=O)n([C@@H]2CC[C@@H](NC(=O)OC)C2)c2cc(Nc3cc(C)c4cccc(C(F)(F)F)c4n3)ncc21 [Example 4, Methyl ((1R,3R)-3-(3-(methyl-d3)-6-((4-methyl-8-(trifluoromethyl)quinolin-2-yl)amino)-2-oxo-2,3-dihydro-1H-imidazo[4,5-c]pyridin-1-yl)cyclopentyl)carbamate] | ≤ 10 | > 1000 | ≤ 10 | > 1000 |
| COC(=O)N[C@@H]1CC[C@@H](n2c(=O)n(C)c3cnc(Nc4ccc5cc(Cl)cc(C(F)(F)F)c5n4)cc32)C1 [Example 25, Methyl ((1R,3R)-3-(6-((6-chloro-8-(trifluoromethyl)quinolin-2-yl)amino)-3-methyl-2-oxo-2,3-dihydro-1H-imidazo[4,5-c]pyridin-1-yl)cyclopentyl)carbamate] | ≤ 10 | > 1000 | ≤ 10 | > 1000 |
| [2H]C([2H])([2H])n1c(=O)n([C@@H]2CC[C@@H](NC(=O)OC)C2)c2cc(Nc3cc(C(C)(O)C(F)(F)F)c4cccc(C(F)(F)F)c4n3)ncc21 (stereo partly drawn) [Example 3, Methyl ((1R,3R)-3-(3-(methyl-d3)-2-oxo-6-((4-(1,1,1-trifluoro-2-hydroxypropan-2-yl)-8-(trifluoromethyl)quinolin-2-yl)amino)-2,3-dihydro-1H-imidazo[4,5-c]pyridin-1-yl)cyclopentyl)carbamate] | ≤ 10 | > 1000 | ≤ 10 | > 1000 |
| [2H]C([2H])([2H])n1c(=O)n([C@@H]2CC[C@@H](NC(=O)OC)C2)c2cc(Nc3cc(NS(C)(=O)=O)c4cccc(C(F)(F)F)c4n3)ncc21 [Example 23, Methyl ((1R,3R)-3-(3-(methyl-d3)-6-((4-(methylsulfonamido)-8-(trifluoromethyl)quinolin-2-yl)amino)-2-oxo-2,3-dihydro-1H-imidazo[4,5-c]pyridin-1-yl)cyclopentyl)carbamate] | 10 to 100 | > 1000 | 10 to 100 | > 1000 |
| [2H]C([2H])([2H])n1c(=O)n([C@@H]2CC[C@@H](NC(=O)OC)C2)c2cc(Nc3ccc4cc(F)cc(C(F)(F)F)c4n3)ncc21 [Example 27, Methyl ((1R,3R)-3-(6-((6-fluoro-8-(trifluoromethyl)quinolin-2-yl)amino)-3-(methyl-d3)-2-oxo-2,3-dihydro-1H-imidazo[4,5-c]pyridin-1-yl)cyclopentyl)carbamate] | ≤ 10 | > 1000 | ≤ 10 | > 1000 |

— US20250304582A1, “Bicyclic Ureas As Kinase Inhibitors” (Incyte Corporation, priority 2024, published 2025)
